Laboratory results taken from ChEMBL document CHEMBL5034010, “Novel Cephalosporin Conjugates Display Potent and Selective Inhibition of Imipenemase-Type Metallo-β-Lactamases” (J Med Chem, 2021).
In brackets after ≈: the same amount, converted by molar mass. Activity calls are given as the source filed them. The calls are words filed in the database; no cut-off is given here.

Legend:
[1] = Inhibition of Escherichia coli beta-lactamase VIM-2 using nitrocefin chromogenic substrate measured after 15 to 60 min at 25 degC by microplate reader
Enterobacter cloacae [2] = assay: Inhibition of Metallo-beta-lactamase IMP-1 in Enterobacter cloacae clinical isolate assessed as fold reduction in meropenem MIC at 32 ug/ml; conditions: dose 32.0 µg/ml
Escherichia coli [3] = assay: Substrate activity at Escherichia coli beta-lactamase NDM-1 assessed as compound hydrolysis by measuring Kcat by Michaelis-Menten analysis
Klebsiella pneumoniae [4] = assay: Substrate activity at Klebsiella pneumoniae beta-lactamase IMP-28 assessed as compound hydrolysis by measuring Kcat/Km by Michaelis-Menten analysis
[5] = Stability of the compound assessed as Klebsiella pneumoniae beta-lactamase IMP-28-mediated degradation by measuring appearance of vinyl protons release measured after 120 mins by NMR spectra; type: ADME; conditions: 2 h
Enterobacter cloacae [6] = assay: Inhibition of Metallo-beta-lactamase IMP-1 in Enterobacter cloacae clinical isolate assessed as fold reduction in meropenem MIC at 64 ug/ml; conditions: dose 64.0 µg/ml
Klebsiella pneumoniae [7] = assay: Inhibition of Metallo-beta-lactamase IMP-28 in Klebsiella pneumoniae clinical isolate assessed as MIC for meropenem antibacterial activity at 64 ug/ml (reference value: 4 ug/ml); conditions: dose 64.0 µg/ml
Escherichia coli [8] = assay: Antibacterial activity against beta-lactamase NDM1 producing Escherichia coli clinical isolate measured upto 128 ug/ml; type: functional, organism-based
Klebsiella pneumoniae [9] = assay: Inhibition of Metallo-beta-lactamase IMP-28 in Klebsiella pneumoniae clinical isolate assessed as MIC for meropenem antibacterial activity at 32 ug/ml (reference value: 4 ug/ml); conditions: dose 32.0 µg/ml
Enterobacter cloacae [10] = assay: Inhibition of Enterobacter cloacae Metallo-beta-lactamase IMP-1
Enterobacter cloacae [11] = assay: Inhibition of Metallo-beta-lactamase IMP-1 in Enterobacter cloacae clinical isolate assessed as MIC for meropenem antibacterial activity at 32 ug/ml (reference value: 32 ug/ml); conditions: dose 32.0 µg/ml
Enterobacter cloacae [12] = assay: Inhibition of Metallo-beta-lactamase IMP-1 in Enterobacter cloacae clinical isolate assessed as MIC for meropenem antibacterial activity at 64 ug/ml (reference value: 32 ug/ml); conditions: dose 64.0 µg/ml
[13] = Inhibition of Enterobacter cloacae IMP-1 using nitrocefin chromogenic substrate measured after 15 to 60 min at 25 degC by microplate reader
[14] = Stability of the compound in Muller hinton broth assessed compound remaining measured after 15 hrs by HPLC analysis; type: physicochemical; conditions: Mueller Hinton broth, read-out: Stability
Escherichia coli [15] = assay: Substrate activity at Escherichia coli beta-lactamase VIM-2 assessed as compound hydrolysis by measuring Kcat by Michaelis-Menten analysis
Escherichia coli [16] = assay: Substrate activity at Escherichia coli beta-lactamase NDM-1 assessed as compound hydrolysis by measuring kcat/km by Michaelis-Menten analysis
Escherichia coli [17] = assay: Inhibition of Metallo-beta-lactamase VIM-2 in Escherichia coli clinical isolate assessed as fold reduction in meropenem MIC at 32 ug/ml; conditions: dose 32.0 µg/ml
Klebsiella pneumoniae [18] = assay: Inhibition of Metallo-beta-lactamase IMP-28 in Klebsiella pneumoniae clinical isolate assessed as fold reduction in meropenem MIC at 32 ug/ml; conditions: dose 32.0 µg/ml
Enterobacter cloacae [19] = assay: Inhibition of Metallo-beta-lactamase IMP-1 in Enterobacter cloacae clinical isolate assessed as fold reduction in meropenem MIC at 128 ug/ml; conditions: dose 128.0 µg/ml
Enterobacter cloacae [20] = assay: Inhibition of Metallo-beta-lactamase IMP-1 in Enterobacter cloacae clinical isolate assessed as MIC for meropenem antibacterial activity at 128 ug/ml (reference value: 32 ug/ml); conditions: dose 128.0 µg/ml
Escherichia coli [21] = assay: Substrate activity at Escherichia coli beta-lactamase VIM-2 assessed as compound hydrolysis by measuring Km by Michaelis-Menten analysis
[22] = Inhibition of Klebsiella pneumoniae beta-lactamase IMP-28 using nitrocefin chromogenic substrate measured after 15 to 60 min at 25 degC by microplate reader
Klebsiella pneumoniae [23] = assay: Antibacterial activity against beta-lactamase IMP-28 producing Klebsiella pneumoniae clinical isolate measured upto 128 ug/ml; type: functional, organism-based
Klebsiella pneumoniae [24] = assay: Inhibition of Klebsiella pneumoniae beta Metallo-beta-lactamase IMP-28
Escherichia coli [25] = assay: Inhibition of Metallo-beta-lactamase VIM-2 in Escherichia coli clinical isolate assessed as MIC for meropenem antibacterial activity at 128 ug/ml (reference value: 8 ug/ml); conditions: dose 128.0 µg/ml
Escherichia coli [26] = assay: Substrate activity at Escherichia coli beta-lactamase VIM-2 assessed as compound hydrolysis by measuring Kcat/Km by Michaelis-Menten analysis
Klebsiella pneumoniae [27] = assay: Substrate activity at Klebsiella pneumoniae beta-lactamase IMP-28 assessed as compound hydrolysis by measuring Km by Michaelis-Menten analysis
[28] = Metabolic stability of the compound assessed as Klebsiella pneumoniae beta-lactamase IMP-28-mediated metabolism by (2R)-2-((R)-carboxy(2-phenylacetamido)methyl)-5-((carboxy(phenyl)methylthio)methyl)-5,6-dihydro-2H-1,3-thiazine-4-carboxylic acid by LC-MS analysis; type: ADME
Escherichia coli [29] = assay: Inhibition of Metallo-beta-lactamase VIM-2 in Escherichia coli clinical isolate assessed as MIC for meropenem antibacterial activity at 64 ug/ml (reference value: 8 ug/ml); conditions: dose 64.0 µg/ml
Klebsiella pneumoniae [30] = assay: Inhibition of Metallo-beta-lactamase IMP-28 in Klebsiella pneumoniae clinical isolate assessed as fold reduction in meropenem MIC at 128 ug/ml; conditions: dose 128.0 µg/ml
Escherichia coli [31] = assay: Antibacterial activity against beta-lactamase VIM2 producing Escherichia coli clinical isolate measured upto 128 ug/ml; type: functional, organism-based
Escherichia coli [32] = assay: Inhibition of Metallo-beta-lactamase NDM-1 in Escherichia coli clinical isolate assessed as MIC for meropenem antibacterial activity at 128 ug/ml (reference value: 32 ug/ml); conditions: dose 128.0 µg/ml
Klebsiella pneumoniae [33] = assay: Inhibition of Metallo-beta-lactamase IMP-28 in Klebsiella pneumoniae clinical isolate assessed as fold reduction in meropenem MIC at 64 ug/ml; conditions: dose 64.0 µg/ml
Escherichia coli [34] = assay: Inhibition of Metallo-beta-lactamase NDM-1 in Escherichia coli clinical isolate assessed as fold reduction in meropenem MIC at 32 ug/ml; conditions: dose 32.0 µg/ml
Escherichia coli [35] = assay: Inhibition of Metallo-beta-lactamase NDM-1 in Escherichia coli clinical isolate assessed as fold reduction in meropenem MIC at 128 ug/ml; conditions: dose 128.0 µg/ml
Klebsiella pneumoniae [36] = assay: Inhibition of Metallo-beta-lactamase IMP-28 in Klebsiella pneumoniae clinical isolate assessed as MIC for meropenem antibacterial activity at 128 ug/ml (reference value: 4 ug/ml); conditions: dose 128.0 µg/ml
Escherichia coli [37] = assay: Inhibition of Metallo-beta-lactamase VIM-2 in Escherichia coli clinical isolate assessed as fold reduction in meropenem MIC at 128 ug/ml; conditions: dose 128.0 µg/ml
Klebsiella pneumoniae [38] = assay: Substrate activity at Klebsiella pneumoniae beta-lactamase IMP-28 assessed as compound hydrolysis by measuring Kcat by Michaelis-Menten analysis
Escherichia coli [39] = assay: Inhibition of Metallo-beta-lactamase NDM-1 in Escherichia coli clinical isolate assessed as fold reduction in meropenem MIC at 64 ug/ml; conditions: dose 64.0 µg/ml
Enterobacter cloacae [40] = assay: Antibacterial activity against beta-lactamase IMP1 producing Enterobacter cloacae clinical isolate measured upto 128 ug/ml; type: functional, organism-based
Escherichia coli [41] = assay: Inhibition of Metallo-beta-lactamase VIM-2 in Escherichia coli clinical isolate assessed as MIC for meropenem antibacterial activity at 32 ug/ml (reference value: 8 ug/ml); conditions: dose 32.0 µg/ml
Escherichia coli [42] = assay: Inhibition of Metallo-beta-lactamase NDM-1 in Escherichia coli clinical isolate assessed as MIC for meropenem antibacterial activity at 64 ug/ml (reference value: 32 ug/ml); conditions: dose 64.0 µg/ml
Escherichia coli [43] = assay: Inhibition of Metallo-beta-lactamase NDM-1 in Escherichia coli clinical isolate assessed as MIC for meropenem antibacterial activity at 32 ug/ml (reference value: 32 ug/ml); conditions: dose 32.0 µg/ml
Escherichia coli [44] = assay: Inhibition of Metallo-beta-lactamase VIM-2 in Escherichia coli clinical isolate assessed as fold reduction in meropenem MIC at 64 ug/ml; conditions: dose 64.0 µg/ml
[45] = Inhibition of Escherichia coli beta-lactamase NDM-1 using nitrocefin chromogenic substrate measured after 15 to 60 min at 25 degC by microplate reader
Escherichia coli [46] = assay: Substrate activity at Escherichia coli beta-lactamase NDM-1 assessed as compound hydrolysis by measuring Km by Michaelis-Menten analysis

`O=C(Cc1ccccc1)N[C@@H]1C(=O)N2C(C(=O)O)=C(CSC(C(=O)O)c3ccccc3)CS[C@H]12` (stereo partly specified) showed an IC50 [1] of 10000 nM, a fold change (FC) (Enterobacter cloacae [2]) of 32 and a kcat (Escherichia coli [3]) of 13.1 s⁻¹. The kcat/Km (Klebsiella pneumoniae [4]) was 3000 M⁻¹ s⁻¹, the Stability [5] was “Stable” and the fold change (FC) (Enterobacter cloacae [6]) was 64. For the same compound, the MIC (Klebsiella pneumoniae [7]) was under 0.063 µg/mL, the Activity (Escherichia coli [8]) was “inactive” and the MIC (Klebsiella pneumoniae [9]) was under 0.063 µg/mL. The inhibition (Enterobacter cloacae [10]) was “Active”, the MIC (Enterobacter cloacae [11]) was 1 µg/mL (≈ 2.01 µM) and the MIC (Enterobacter cloacae [12]) was 0.5 µg/mL (≈ 1 µM). For the same compound, the IC50 [13] was 470 nM, the remaining at 15 h [14] was over 95% and the kcat (Escherichia coli [15]) was 4.06 s⁻¹. It also gave a kcat/Km (Escherichia coli [16]) of 936000 M⁻¹ s⁻¹, a fold change (FC) (Escherichia coli [17]) of 2 and a fold change (FC) (Klebsiella pneumoniae [18]) of over 64. It also gave a fold change (FC) (Enterobacter cloacae [19]) of 64, an MIC (Enterobacter cloacae [20]) of 0.5 µg/mL (≈ 1 µM) and a Km (Escherichia coli [21]) of 8.28 µM. The IC50 [22] was 460 nM, the Activity (Klebsiella pneumoniae [23]) was “inactive” and the inhibition (Klebsiella pneumoniae [24]) was “Active”. It also gave an MIC (Escherichia coli [25]) of 1 µg/mL (≈ 2.01 µM), a kcat/Km (Escherichia coli [26]) of 490000 M⁻¹ s⁻¹ and a Km (Klebsiella pneumoniae [27]) of 129 µM. For the same compound, the Drug metabolism [28] was “Metabolite_Detected”, the MIC (Escherichia coli [29]) was 2 µg/mL (≈ 4.01 µM) and the fold change (FC) (Klebsiella pneumoniae [30]) was over 64. For the same compound, the Activity (Escherichia coli [31]) was “inactive”, the MIC (Escherichia coli [32]) was 8 µg/mL (≈ 16 µM) and the fold change (FC) (Klebsiella pneumoniae [33]) was over 64. The fold change (FC) (Escherichia coli [34]) was 2, the fold change (FC) (Escherichia coli [35]) was 4 and the MIC (Klebsiella pneumoniae [36]) was under 0.063 µg/mL. For the same compound, the fold change (FC) (Escherichia coli [37]) was 8, the kcat (Klebsiella pneumoniae [38]) was 0.386 s⁻¹ and the fold change (FC) (Escherichia coli [39]) was 2. For the same compound, the Activity (Enterobacter cloacae [40]) was “inactive”, the MIC (Escherichia coli [41]) was 4 µg/mL (≈ 8.02 µM) and the MIC (Escherichia coli [42]) was 16 µg/mL (≈ 32.1 µM). It also gave an MIC (Escherichia coli [43]) of 16 µg/mL (≈ 32.1 µM), a fold change (FC) (Escherichia coli [44]) of 4 and an IC50 [45] of over 100000 nM. The Km (Escherichia coli [46]) was 14 µM.
